The supplement of paper PMC13380429
± gives the standard deviation of the averaged measurements.

What was measured:
Settings in all cases: 72 h
Caco-2 [1] = assay: cell viability relative to DMSO; higher = less toxic
HepG2 [2] = assay: as above
U2OS [3] = assay: as above
Vero E6 [4] = assay: as above
Caco-2 [5] = assay: relative viability EC50 (midpoint between 100% and the lowest measured viability); higher = less toxic
HepG2 [6] = assay: as above
U2OS [7] = assay: as above
Vero E6 [8] = assay: as above
Caco-2 [9] = assay: drug sensitivity score (DSS) for viability; higher = more toxic; extreme values may be limits of the assay
HepG2 [10] = assay: as above
U2OS [11] = assay: as above
Vero E6 [12] = assay: as above
Calu-3 [13] = assay: cell viability relative to DMSO; higher = less toxic
Calu-3 [14] = assay: relative viability EC50 (midpoint between 100% and the lowest measured viability); higher = less toxic
Calu-3 [15] = assay: drug sensitivity score (DSS) for viability; higher = more toxic; extreme values may be limits of the assay

Compound	cell viability (Caco-2 [1]; 1 nM)	cell viability (Caco-2 [1]; 10 nM)	cell viability (Caco-2 [1]; 100 nM)	cell viability (Caco-2 [1]; 1000 nM)	cell viability (Caco-2 [1]; 10000 nM)	cell viability (HepG2 [2]; 1 nM)	cell viability (HepG2 [2]; 10 nM)	cell viability (HepG2 [2]; 100 nM)	cell viability (HepG2 [2]; 1000 nM)	cell viability (HepG2 [2]; 10000 nM)	cell viability (U2OS [3]; 1 nM)	cell viability (U2OS [3]; 10 nM)	cell viability (U2OS [3]; 100 nM)	cell viability (U2OS [3]; 1000 nM)	cell viability (U2OS [3]; 10000 nM)	cell viability (Vero E6 [4]; 1 nM)	cell viability (Vero E6 [4]; 10 nM)	cell viability (Vero E6 [4]; 100 nM)	cell viability (Vero E6 [4]; 1000 nM)	cell viability (Vero E6 [4]; 10000 nM)	relative viability EC50 (Caco-2 [5])	relative viability EC50 (HepG2 [6])	relative viability EC50 (U2OS [7])	relative viability EC50 (Vero E6 [8])	drug sensitivity score (Caco-2 [9])	drug sensitivity score (HepG2 [10])	drug sensitivity score (U2OS [11])	drug sensitivity score (Vero E6 [12])	cell viability (Calu-3 [13]; 1 nM)	cell viability (Calu-3 [13]; 10 nM)	cell viability (Calu-3 [13]; 100 nM)	cell viability (Calu-3 [13]; 1000 nM)	cell viability (Calu-3 [13]; 10000 nM)	relative viability EC50 (Calu-3 [14])	drug sensitivity score (Calu-3 [15])
C/C(=N\NC(=O)[C@@H]1C(=O)NC[C@H]1c1ccccc1)c1cccc(Br)c1	102%	97.5%	104%	96%	101%	99.4%	99.8%	101%	103%	92.4%	99.9%	100%	103%	94.1%	97.5%	96.3%	97.9%	94%	98.2%	96.4%	> 10 µM	> 10 µM	> 10 µM	> 10 µM	0	0	0	0	–	–	–	–	–	–	–
COc1cc2ncnc(Oc3cccc(NC(=O)Nc4cc(C(C)(C)C(F)(F)F)on4)c3)c2cc1OC	102%	94.1%	97.5%	93.2%	93.8%	114%	93.9%	110%	93.7%	59.8%	–	–	–	–	–	100%	97.1%	108%	108%	88.3%	> 10 µM	–	–	> 10 µM	0	3	–	0	–	–	–	–	–	–	–
COc1ccc(CNC(=O)/C=C/c2ccc3[nH]cc(CCN(C)C)c3c2)cc1	106%	95%	93.8%	96.6%	98.7%	107%	90.6%	93.5%	94%	96.8%	102%	97.4%	98.1%	98.9%	99.3%	98.5%	98%	101%	101%	102%	> 10 µM	> 10 µM	> 10 µM	> 10 µM	0	0	0	0	–	–	–	–	–	–	–
N#Cc1cc2c(OCC(O)CN3CCN(C(c4ccccc4)c4ccccc4)CC3)cccc2[nH]1 (configuration not stated)	106%	92.7%	112%	92.9%	68.3%	83.5%	96.1%	96.8%	101%	38.9%	96.3%	101%	102%	100%	92.5%	101%	103%	95.5%	98.9%	53.5%	–	3.3 µM	> 10 µM	–	2.5	3.2	0	2.5	105%	93.4%	95.2%	97.8%	95.7%	> 10 µM	0
O=C(NC[C@H](O)CO)c1ccncc1Nc1ccc(I)cc1F	92.8%	93.2%	81.7%	73%	61.7%	102%	62.9%	35%	20.5%	15.8%	94.6%	94.5%	91.6%	91.8%	29.9%	98.2%	85.4%	67.4%	52%	52.7%	–	0.0178 µM	2.2 µM	–	6.9	27.2	5.2	13.5	96.8%	83.1%	67.3%	51%	31.9%	0.104 µM	14.8
Cc1cc(Nc2nc(N[C@@H](C)c3ccc(F)cc3)c(C#N)cc2F)n[nH]1 [AZ960]	112%	109%	118%	77.8%	51.8%	111%	105%	96.7%	43.2%	33.6%	104%	101%	104%	76.3%	27.8%	99.3%	99.6%	100%	65.9%	40.9%	–	0.422 µM	1.33 µM	0.883 µM	5.4	10.9	7.4	7.4	118%	103%	96.1%	83.9%	38.9%	1.51 µM	5.8
COc1cc(OC2CCN(C)CC2)ccc1Nc1ncc2c(n1)n(C1CCCC1)c(=O)n2C [AZ3146]	103%	101%	104%	95%	76.8%	106%	97.9%	102%	96.1%	28.8%	100%	104%	101%	92.2%	57%	111%	104%	103%	99.4%	41.8%	> 10 µM	2.74 µM	–	3.1 µM	1.5	4.5	3.5	3.2	95.5%	87.4%	93.6%	84.4%	62.4%	–	3.8
O=C1c2ccccc2-c2c(NCCc3ccccc3)c(=O)[nH]c3cccc1c23 [BRD7389]	103%	102%	97.3%	71.6%	61.9%	98.8%	101%	99%	45.7%	34.8%	97.2%	102%	95.5%	68.5%	44.5%	102%	102%	101%	69.1%	33.5%	–	0.525 µM	0.795 µM	1.06 µM	5.3	10.1	6.7	7.7	97.4%	100%	97.6%	83.1%	72.5%	–	2.8
CN(C)/N=N/c1ccc(C(=O)O)cc1 [CB-10-277]	95.8%	97.3%	101%	96.6%	102%	102%	95.9%	113%	102%	105%	96.6%	104%	98.1%	99.9%	104%	98.7%	98.3%	97.6%	97.2%	106%	> 10 µM	> 10 µM	> 10 µM	> 10 µM	0	0	0	0	–	–	–	–	–	–	–
COc1cc(/C=C2\CCCN([C@@H](C)c3ccc(F)cc3)C2=O)ccc1-n1cnc(C)c1 [E-2012]	106%	101%	94.9%	98.8%	72.6%	109%	97.5%	100%	99%	60.1%	103%	97.7%	101%	104%	97.4%	93.1%	104%	98.7%	98.8%	106%	–	–	> 10 µM	> 10 µM	1.3	2.1	0	0	102%	99.2%	106%	104%	114%	> 10 µM	0
COc1ccc(CNC(=O)c2cc(-c3cncc(C)c3)ncc2-c2nccs2)nc1OC [MK-3697]	–	–	–	–	–	99.8%	91.2%	94.9%	98.5%	105%	97.4%	103%	94.7%	99.3%	99.1%	103%	104%	109%	111%	92.7%	–	> 10 µM	> 10 µM	> 10 µM	–	0	0	0	89%	101%	83.4%	92.5%	99.9%	> 10 µM	0
O=c1cc(N2CCN(c3cccc(C(F)(F)F)c3)CC2)[nH]c(=O)n1C1CCCCC1 [ML179]	95.5%	96.8%	97.2%	98%	96.5%	100%	105%	94.4%	82.6%	77.7%	101%	97.5%	100%	97.9%	101%	102%	101%	98.4%	100%	99.7%	> 10 µM	> 10 µM	> 10 µM	> 10 µM	0	2.7	0	0	–	–	–	–	–	–	–
CC(C)c1ccc(-c2cc(=O)c3ccccc3o2)cc1 [MN-64]	105%	98.8%	105%	84.9%	81.1%	91.9%	97.6%	94.8%	94.8%	65.1%	102%	99.4%	102%	95.2%	88.2%	96.6%	94.2%	98.9%	98%	61.5%	> 10 µM	–	> 10 µM	–	1.9	2.5	0.2	2.2	113%	105%	97.2%	96.1%	72.7%	–	1.7
O=C(Nc1ccc(OC(F)(F)F)cc1)c1sccc1NCc1ccnc2ccccc12 [OSI-930]	107%	102%	94.1%	97.9%	69.3%	103%	98.5%	91.3%	89%	67%	97.8%	101%	99.8%	104%	92.2%	–	–	–	–	–	–	–	> 10 µM	–	1.7	2.5	0	–	91.6%	111%	93.6%	112%	78%	> 10 µM	0.4
O=C(NCc1cccc(O)c1)Nc1nc(-c2ccncc2)cs1 [RKI-1447]	97.8 ± 5.2%	97 ± 0.14%	94.8 ± 6.2%	96.6 ± 1.1%	81.3 ± 0.14%	94.2 ± 6%	108 ± 9.9%	101 ± 3.4%	91.95 ± 0.49%	73.1 ± 8.9%	98.8 ± 2.4%	99.3 ± 2.8%	101 ± 4.9%	87.5 ± 3.1%	61.8 ± 2.3%	99.5 ± 3.7%	100 ± 4.4%	91.1 ± 13%	76.1 ± 0.42%	73.4 ± 0.28%	> 10 µM	–	–	–	0.65 ± 0.49	2.05 ± 1.1	3.6 ± 0.57	5.05 ± 1.8	97.9%	128%	146%	148%	144%	> 10 µM	0
O=C1NC(=O)/C(=C/c2cccc(C(F)(F)F)c2)S1 [SMI-4a]	97.7%	101%	105%	104%	92.7%	96.4%	112%	91%	97.4%	105%	–	–	–	–	–	104%	101%	99.1%	101%	95.9%	> 10 µM	> 10 µM	–	> 10 µM	0	0	–	0	101%	98.1%	95.4%	100%	97.4%	> 10 µM	0
